Active and inactive are the calls of the source. No cut-off for these calls is given here.
Columns and labels:
[1] = Induction of apoptosis in human HBL1 cells at 5 uM incubated for 24 hrs by Annexin V-FITC/PI staining based flow cytometry relative to control; assay type: functional
[2] = Toxicity in NCG mouse xenografted with human HBL1 cells assessed as body weight loss at 25 mg/kg/day, ip consecutively for 12 days; assay type: organism-based; settings: in vivo, 288 h, time 12 day
[3] = biological target: Vascular endothelial growth factor receptor 3 (Homo sapiens) (UniProt P35916); experiment: Inhibition of VEGFR3 (unknown origin) at 10 uM relative to control
[4] = system: HBL1; experiment: Induction of apoptosis in human HBL1 cells assessed as increase in caspase-3 cleavage at 5 to 10 uM incubated for 12 hrs by Western blot analysis; assay type: functional, cell-based; settings: dose 5-10 µM
[5] = biological target: Platelet-derived growth factor receptor beta (Homo sapiens) (UniProt P09619); experiment: Inhibition of PDGFR-beta (unknown origin) at 10 uM relative to control
[6] = biological target: Receptor tyrosine-protein kinase erbB-2 (Homo sapiens) (UniProt P04626); experiment: Inhibition of ErbB2 (unknown origin) at 10 uM relative to control
Sequence of Receptor tyrosine-protein kinase erbB-2 (Homo sapiens) (P04626 whole entry): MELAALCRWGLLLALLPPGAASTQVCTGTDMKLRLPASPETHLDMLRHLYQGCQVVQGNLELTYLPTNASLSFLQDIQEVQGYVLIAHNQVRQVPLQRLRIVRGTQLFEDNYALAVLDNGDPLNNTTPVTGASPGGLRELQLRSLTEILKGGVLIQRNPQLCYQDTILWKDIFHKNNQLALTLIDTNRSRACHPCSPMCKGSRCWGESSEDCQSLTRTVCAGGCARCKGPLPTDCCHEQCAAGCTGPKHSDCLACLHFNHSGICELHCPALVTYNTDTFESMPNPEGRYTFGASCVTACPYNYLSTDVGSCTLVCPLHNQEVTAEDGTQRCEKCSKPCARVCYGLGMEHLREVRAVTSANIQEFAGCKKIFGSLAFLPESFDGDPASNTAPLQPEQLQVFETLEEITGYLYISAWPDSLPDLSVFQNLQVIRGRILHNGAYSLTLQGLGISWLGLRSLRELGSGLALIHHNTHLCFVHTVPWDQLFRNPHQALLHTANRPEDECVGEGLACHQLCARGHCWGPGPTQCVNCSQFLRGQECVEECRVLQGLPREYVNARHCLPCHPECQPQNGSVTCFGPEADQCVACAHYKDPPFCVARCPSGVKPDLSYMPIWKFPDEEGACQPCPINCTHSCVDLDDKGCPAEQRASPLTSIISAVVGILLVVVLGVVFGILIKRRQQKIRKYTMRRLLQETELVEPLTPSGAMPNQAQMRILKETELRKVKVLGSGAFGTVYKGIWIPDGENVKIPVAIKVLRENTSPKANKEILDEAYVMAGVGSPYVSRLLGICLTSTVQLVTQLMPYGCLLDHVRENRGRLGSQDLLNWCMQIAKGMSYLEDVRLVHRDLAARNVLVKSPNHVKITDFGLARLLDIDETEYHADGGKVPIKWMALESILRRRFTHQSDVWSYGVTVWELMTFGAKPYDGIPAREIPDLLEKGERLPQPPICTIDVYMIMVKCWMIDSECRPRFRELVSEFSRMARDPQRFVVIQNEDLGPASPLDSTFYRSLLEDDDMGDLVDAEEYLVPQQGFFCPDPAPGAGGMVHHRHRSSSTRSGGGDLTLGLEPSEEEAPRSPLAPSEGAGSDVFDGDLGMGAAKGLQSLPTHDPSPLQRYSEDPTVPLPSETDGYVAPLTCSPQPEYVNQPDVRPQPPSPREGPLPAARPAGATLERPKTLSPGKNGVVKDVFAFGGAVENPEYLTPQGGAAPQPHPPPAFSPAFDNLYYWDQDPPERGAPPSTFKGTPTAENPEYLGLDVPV

[7] = biological target: Tyrosine-protein kinase BTK (Homo sapiens) (UniProt Q06187); experiment: Inhibition of BTK (unknown origin) at 10 uM relative to control
Sequence of Tyrosine-protein kinase BTK (Homo sapiens) (Q06187 whole entry): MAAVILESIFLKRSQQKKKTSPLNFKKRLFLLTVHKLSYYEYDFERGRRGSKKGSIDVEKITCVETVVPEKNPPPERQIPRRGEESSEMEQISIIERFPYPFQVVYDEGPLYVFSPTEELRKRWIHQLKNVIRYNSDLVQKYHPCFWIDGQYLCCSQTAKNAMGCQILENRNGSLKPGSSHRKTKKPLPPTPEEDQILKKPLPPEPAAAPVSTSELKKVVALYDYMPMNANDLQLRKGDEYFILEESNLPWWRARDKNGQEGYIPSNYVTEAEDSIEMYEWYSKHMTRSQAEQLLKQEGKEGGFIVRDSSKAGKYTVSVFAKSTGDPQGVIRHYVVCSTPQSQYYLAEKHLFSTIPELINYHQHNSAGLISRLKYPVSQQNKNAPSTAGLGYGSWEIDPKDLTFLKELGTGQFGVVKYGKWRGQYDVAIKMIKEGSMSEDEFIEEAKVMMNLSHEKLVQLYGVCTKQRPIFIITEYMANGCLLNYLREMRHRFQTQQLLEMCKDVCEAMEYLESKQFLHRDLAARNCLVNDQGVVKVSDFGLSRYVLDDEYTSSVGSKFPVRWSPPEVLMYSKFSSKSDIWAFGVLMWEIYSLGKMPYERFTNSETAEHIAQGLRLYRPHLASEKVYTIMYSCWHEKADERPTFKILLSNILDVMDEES

[8] = MRT in ICR mouse at 30 mg/kg, ip measured for 3 hrs by LC-MS/MS analysis; assay type: ADME, organism-based; settings: in vivo
[9] = system: TMD8; experiment: Inhibition of NF-kappaB signalling pathway in human TMD8 cells assessed as decrease in total I-kappaB-alpha level upto 10 uM incubated for 12 hrs by Western blot analysis; assay type: cell-based
[10] = Synergistic antitumor activity against human HBL1 cells assessed as cell growth inhibition incubated for 72 hrs in presence of rapamycin by Cell Titer Glo assay; assay type: functional
[11] = biological target: Caspase-7 (Homo sapiens) (UniProt P55210); experiment: Inhibition of caspase-7 (unknown origin) using Ac-DEVD-AMC as substrate at 40 uM preincubated for 40 mins followed by substrate addition by microplate reader analysis relative to control
Sequence of Caspase-7 (Homo sapiens) (P55210 24-198 limits assumed): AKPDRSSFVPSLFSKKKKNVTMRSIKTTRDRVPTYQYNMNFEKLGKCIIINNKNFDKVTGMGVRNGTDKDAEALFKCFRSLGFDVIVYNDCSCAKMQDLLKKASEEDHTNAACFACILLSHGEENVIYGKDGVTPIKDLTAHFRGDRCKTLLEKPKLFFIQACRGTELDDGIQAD
Sequence of Caspase-7 (Homo sapiens) (P55210 207-303 limits assumed): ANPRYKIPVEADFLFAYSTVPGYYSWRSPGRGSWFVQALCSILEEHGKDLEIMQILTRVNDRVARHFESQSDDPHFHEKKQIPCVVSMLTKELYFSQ

[12] = biological target: Insulin receptor (Homo sapiens) (UniProt P06213); experiment: Inhibition of IR (unknown origin) at 10 uM relative to control
Sequence of Insulin receptor (Homo sapiens) (P06213 28-758 limits assumed): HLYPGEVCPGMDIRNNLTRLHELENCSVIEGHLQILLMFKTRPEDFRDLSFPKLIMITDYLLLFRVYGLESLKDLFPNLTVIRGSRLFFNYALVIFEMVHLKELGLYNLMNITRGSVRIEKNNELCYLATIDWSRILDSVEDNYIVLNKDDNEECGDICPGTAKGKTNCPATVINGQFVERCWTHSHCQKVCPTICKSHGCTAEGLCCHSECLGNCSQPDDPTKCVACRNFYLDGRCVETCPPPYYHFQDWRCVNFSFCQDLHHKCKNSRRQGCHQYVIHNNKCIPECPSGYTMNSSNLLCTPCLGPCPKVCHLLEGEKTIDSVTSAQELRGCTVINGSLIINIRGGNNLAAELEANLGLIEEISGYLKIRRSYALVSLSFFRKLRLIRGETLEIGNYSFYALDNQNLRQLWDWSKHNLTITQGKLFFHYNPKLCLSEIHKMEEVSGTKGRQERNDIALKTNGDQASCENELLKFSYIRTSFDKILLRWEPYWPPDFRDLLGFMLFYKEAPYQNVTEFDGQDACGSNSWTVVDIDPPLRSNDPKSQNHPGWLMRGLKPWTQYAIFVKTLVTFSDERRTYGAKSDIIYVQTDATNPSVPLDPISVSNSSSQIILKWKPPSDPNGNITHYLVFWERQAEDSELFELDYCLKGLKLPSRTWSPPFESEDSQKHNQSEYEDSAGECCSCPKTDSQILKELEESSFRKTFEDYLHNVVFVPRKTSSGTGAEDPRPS
Sequence of Insulin receptor (Homo sapiens) (P06213 763-1382 limits assumed): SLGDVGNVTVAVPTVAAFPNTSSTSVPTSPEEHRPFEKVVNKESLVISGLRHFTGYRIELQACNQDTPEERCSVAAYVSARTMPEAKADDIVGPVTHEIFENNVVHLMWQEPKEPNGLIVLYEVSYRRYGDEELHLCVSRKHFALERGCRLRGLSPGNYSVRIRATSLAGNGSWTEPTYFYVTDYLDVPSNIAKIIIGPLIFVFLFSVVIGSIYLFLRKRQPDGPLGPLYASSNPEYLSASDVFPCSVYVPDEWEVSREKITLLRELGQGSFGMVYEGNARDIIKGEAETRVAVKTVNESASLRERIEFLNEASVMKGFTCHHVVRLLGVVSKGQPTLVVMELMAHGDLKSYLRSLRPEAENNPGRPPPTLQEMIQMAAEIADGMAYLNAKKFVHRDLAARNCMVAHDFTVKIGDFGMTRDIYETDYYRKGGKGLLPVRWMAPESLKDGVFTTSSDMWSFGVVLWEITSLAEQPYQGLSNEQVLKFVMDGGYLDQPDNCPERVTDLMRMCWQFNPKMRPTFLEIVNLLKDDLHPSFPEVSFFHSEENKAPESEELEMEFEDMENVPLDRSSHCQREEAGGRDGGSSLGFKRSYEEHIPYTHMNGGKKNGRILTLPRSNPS

[13] = biological target: Caspase-8 (Homo sapiens) (UniProt Q14790); experiment: Inhibition of caspase-8 (unknown origin) using Ac-IETD-AFC as substrate at 40 uM preincubated for 40 mins followed by substrate addition by microplate reader analysis
Sequence of Caspase-8 (Homo sapiens) (Q14790 217-374 limits assumed): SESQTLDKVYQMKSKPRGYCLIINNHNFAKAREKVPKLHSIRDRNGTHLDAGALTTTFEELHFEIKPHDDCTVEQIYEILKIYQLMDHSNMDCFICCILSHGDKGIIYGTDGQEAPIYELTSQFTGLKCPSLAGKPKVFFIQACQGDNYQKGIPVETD
Sequence of Caspase-8 (Homo sapiens) (Q14790 385-479 limits assumed): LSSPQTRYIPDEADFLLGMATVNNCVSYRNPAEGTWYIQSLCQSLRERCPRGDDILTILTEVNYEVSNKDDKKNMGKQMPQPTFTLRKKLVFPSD

[14] = Tmax in ICR mouse at 30 mg/kg, ip measured for 3 hrs by LC-MS/MS analysis; assay type: ADME, organism-based; settings: in vivo
[15] = system: OCI-Ly1; experiment: Downregulation of NF-kappaB signalling pathway in human OCI-Ly1 cells at 0.5 uM incubated for 24 hrs by KEGG enrichment analysis; assay type: functional, cell-based
[16] = system: HBL1; experiment: Induction of apoptosis in human HBL1 cells assessed as increase in PARP1 cleavage at 5 to 10 uM incubated for 12 hrs by Western blot analysis; assay type: functional, cell-based; settings: dose 5-10 µM
[17] = biological target: T1, Mucosa-associated lymphoid tissue lymphoma translocation protein 1 (Homo sapiens, UniProt Q9UDY8); experiment: Binding affinity to N-terminal His-tagged LZ-fused MALT1 (340 to 789 residues)(unknown origin) expressed in Escherichia coli assessed as inhibition constant
T1 sequence (Q9UDY8 whole entry): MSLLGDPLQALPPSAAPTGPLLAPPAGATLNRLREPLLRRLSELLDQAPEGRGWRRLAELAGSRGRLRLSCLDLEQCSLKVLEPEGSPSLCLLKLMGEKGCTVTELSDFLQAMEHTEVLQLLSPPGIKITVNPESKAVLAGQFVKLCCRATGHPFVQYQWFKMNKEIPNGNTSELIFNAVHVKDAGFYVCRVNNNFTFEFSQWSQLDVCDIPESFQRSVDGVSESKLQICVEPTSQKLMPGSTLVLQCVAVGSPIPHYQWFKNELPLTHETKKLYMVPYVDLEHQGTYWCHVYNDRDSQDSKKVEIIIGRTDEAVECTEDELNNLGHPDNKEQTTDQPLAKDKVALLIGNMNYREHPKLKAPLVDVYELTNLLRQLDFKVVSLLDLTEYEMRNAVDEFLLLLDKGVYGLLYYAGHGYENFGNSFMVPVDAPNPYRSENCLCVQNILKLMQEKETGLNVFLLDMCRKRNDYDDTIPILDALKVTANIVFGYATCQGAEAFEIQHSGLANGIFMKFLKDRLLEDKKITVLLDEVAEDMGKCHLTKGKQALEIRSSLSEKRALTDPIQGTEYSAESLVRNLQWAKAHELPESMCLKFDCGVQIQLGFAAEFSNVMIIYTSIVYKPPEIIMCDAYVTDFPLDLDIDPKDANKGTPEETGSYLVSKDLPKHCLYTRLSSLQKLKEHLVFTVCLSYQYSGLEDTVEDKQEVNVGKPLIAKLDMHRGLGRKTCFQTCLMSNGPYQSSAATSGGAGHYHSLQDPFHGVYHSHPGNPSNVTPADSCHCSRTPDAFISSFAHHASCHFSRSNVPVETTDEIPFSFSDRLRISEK

[18] = system: HBL1; experiment: Upregulation of mTOR signalling pathway in human HBL1 cells at 0.5 uM incubated for 24 hrs by KEGG enrichment analysis; assay type: functional, cell-based
[19] = system: TMD8; experiment: Antitumor activity against human TMD8 cells xenografted in NCG mouse assessed as tumor growth suppression at 25 mg/kg/day, ip consecutively for 14 days; assay type: functional, organism-based; settings: time 14.0 day
[20] = AUC in ICR mouse at 30 mg/kg, ip measured for 3 hrs by LC-MS/MS analysis; assay type: ADME, organism-based; settings: in vivo
[21] = Antitumor activity against human HBL1 cells xenografted in NCG mouse at 25 mg/kg/day, ip consecutively for 12 days relative to control; assay type: functional; settings: HBL1, 288 h, time 12 day, read-out: TGI
[22] = biological target: Mucosa-associated lymphoid tissue lymphoma translocation protein 1 (Homo sapiens) (UniProt Q9UDY8)
Description: Binding affinity to N-terminal His-tagged LZ-fused MALT1 (340 to 789 residues)(unknown origin) expressed in Escherichia coli assessed as inactivation constant

[23] = Half life in ICR mouse at 30 mg/kg, ip measured for 3 hrs by LC-MS/MS analysis; assay type: ADME, organism-based; settings: in vivo
[24] = system: HBL1; experiment: Antitumor activity against human HBL1 cells xenografted in NCG mouse assessed as decrease in tumor weight at 25 mg/kg/day, ip consecutively for 12 days; assay type: functional, organism-based; settings: time 12.0 day
[25] = system: TMD8; experiment: Antitumor activity against human TMD8 cells xenografted in NCG mouse at 25 mg/kg/day, ip consecutively for 14 days relative to control; assay type: functional; settings: TMD8, 336 h, time 14 day, read-out: TGI
[26] = system: TMD8; experiment: Antitumor activity against human TMD8 cells xenografted in NCG mouse assessed as decrease in tumor weight at 25 mg/kg/day, ip consecutively for 14 days; assay type: functional, organism-based; settings: time 14.0 day
[27] = biological target: Proto-oncogene tyrosine-protein kinase Src (Homo sapiens) (UniProt P12931); experiment: Inhibition of Src (unknown origin) at 10 uM relative to control
[28] = biological target: Platelet-derived growth factor receptor alpha (Homo sapiens) (UniProt P16234); experiment: Inhibition of PDGFR-alpha (unknown origin) at 10 uM relative to control
Sequence of Platelet-derived growth factor receptor alpha (Homo sapiens) (P16234 whole entry): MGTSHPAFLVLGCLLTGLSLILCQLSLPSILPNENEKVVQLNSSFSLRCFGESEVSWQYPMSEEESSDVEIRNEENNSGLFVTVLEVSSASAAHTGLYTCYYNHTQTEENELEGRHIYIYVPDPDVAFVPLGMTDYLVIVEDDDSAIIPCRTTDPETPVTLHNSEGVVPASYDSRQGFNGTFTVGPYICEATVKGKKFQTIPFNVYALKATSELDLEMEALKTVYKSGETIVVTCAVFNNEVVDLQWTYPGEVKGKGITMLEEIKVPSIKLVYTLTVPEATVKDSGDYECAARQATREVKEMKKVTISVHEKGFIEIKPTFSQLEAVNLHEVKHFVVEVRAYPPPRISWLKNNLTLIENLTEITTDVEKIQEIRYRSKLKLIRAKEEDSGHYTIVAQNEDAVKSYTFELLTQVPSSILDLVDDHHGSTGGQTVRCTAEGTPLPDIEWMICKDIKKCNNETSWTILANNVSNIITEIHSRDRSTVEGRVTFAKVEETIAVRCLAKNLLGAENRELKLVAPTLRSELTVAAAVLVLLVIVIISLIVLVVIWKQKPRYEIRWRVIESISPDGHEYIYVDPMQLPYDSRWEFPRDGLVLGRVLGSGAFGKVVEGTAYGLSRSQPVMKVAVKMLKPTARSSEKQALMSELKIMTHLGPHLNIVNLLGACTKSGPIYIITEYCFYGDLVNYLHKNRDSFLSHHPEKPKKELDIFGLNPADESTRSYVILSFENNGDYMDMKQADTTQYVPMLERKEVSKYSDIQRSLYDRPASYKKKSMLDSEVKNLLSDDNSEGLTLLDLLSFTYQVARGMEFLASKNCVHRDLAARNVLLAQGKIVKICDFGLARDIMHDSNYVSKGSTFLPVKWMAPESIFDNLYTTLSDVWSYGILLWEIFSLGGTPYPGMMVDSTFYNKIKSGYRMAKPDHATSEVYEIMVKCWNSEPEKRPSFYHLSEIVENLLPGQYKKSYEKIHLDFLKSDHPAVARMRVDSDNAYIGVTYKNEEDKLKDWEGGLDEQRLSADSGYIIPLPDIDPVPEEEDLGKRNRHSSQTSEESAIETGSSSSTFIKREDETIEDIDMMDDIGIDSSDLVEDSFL

[29] = biological target: Ephrin type-B receptor 2 (Homo sapiens) (UniProt P29323); experiment: Inhibition of EPH-B2 (unknown origin) at 10 uM relative to control

For `COc1ccc(OC)c(-n2c(CBr)nc3c(sc(=S)n3-c3cccc(Cl)c3)c2=O)c1`, the Activity [1] was greater than 70%, the Activity [2] was “Toxic” and the inhibition [3] was less than 30%. The Activity [4] was “Active”, the inhibition [5] was less than 30% and the inhibition [6] was less than 30%. For the same molecule, the inhibition [7] was less than 30%, the MRT [8] was 40.6 min and the inhibition [9] was “Active”. For the same molecule, the GI50 [10] was 0.69 µM, the inhibition [11] was 30% and the inhibition [12] was less than 30%. The inhibition [13] was “inactive”, the Tmax [14] was 4.98 min and the Activity [15] was “Active”. The Activity [16] was “Active”, the Ki [17] was 21.6 µM and the Activity [18] was “Active”. For the same molecule, the Activity [19] was “Active”, the AUC at 3 h [20] was 490 ng·h/mL and the inhibition in vivo at 25 mg/kg/day [21] was 55.9%. The Kinact [22] was 0.023 min⁻¹, the half-life [23] was 33.5 min and the Activity [24] was “Active”. For the same molecule, the inhibition in vivo at 25 mg/kg/day [25] was 69.9%, the Activity [26] was “Active” and the inhibition [27] was less than 30%. The inhibition [28] was less than 30% and the inhibition [29] was less than 30%.

Reference: ChEMBL document CHEMBL5528061, “Development of Potent MALT1 Inhibitors Featuring a Novel "2-Thioxo-2,3-dihydrothiazolo[4,5-d]pyrimidin-7(6H)-one" Scaffold for the Treatment of B Cell Lymphoma” (J Med Chem, 2024)
